# Patent EP2676962A1, “Derivatives of 1-aminoalkylphosphonate diaryl esters, method of 1-aminoalkylphosphonate diaryl ester derivatives preparation and their application” (priority 2012, dated 2013)
# Where two headings read alike, the source gives them in different places.
# Columns and labels:
# Type in all cases: biochemical
# [1] = target: T1, human neutrophil elastase (HNE) (Homo sapiens, UniProt P08246); assay: Inhibitory activity toward human neutrophil elastase, fluorogenic substrate, microplate reader
# T1 sequence (P08246 30-267): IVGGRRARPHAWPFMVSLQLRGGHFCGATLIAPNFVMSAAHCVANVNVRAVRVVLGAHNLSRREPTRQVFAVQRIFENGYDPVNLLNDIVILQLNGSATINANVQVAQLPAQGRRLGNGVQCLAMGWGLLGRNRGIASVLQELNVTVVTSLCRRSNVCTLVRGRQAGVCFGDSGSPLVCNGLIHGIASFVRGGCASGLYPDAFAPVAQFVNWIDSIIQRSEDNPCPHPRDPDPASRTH
# Procedure: (§1) The biological activity of peptidyl derivatives of phosphonic analogs of valine, alanine, phenylalanine, 4-guanidinephenylglycine, leucine, and 1-aminobutyric acid, containing the N-terminal biotin residue were tested for their ability to inhibit proteolytic activity of selected serine proteases, and the control cysteine proteases. All tests were performed using a microplate reader. As enzyme substrates fluorescent peptides were used. The method to measure the activity of the compounds obtained are described below for each of the enzymes tested: human neutrophil elastase (HNE), porcine pancreatic elastase (PPE), subtilisin (Sub), cathepsin G (CatG), proteinase 3 (PR3), chymotrypsin (ChTry) trypsin (Try), papain (Pap) and cathepsin L (CatL). Measurement of the inhibitory activity was performed at different inhibitor concentrations ranging from 12.5 nM to 2000nm.
# Measurement of inhibitory activity of compounds toward human neutrophil elastase (HNE).
# (§2) The inhibitory activity assay is performed at 37°C in 0,01M HEPES, 0,5M NaCl, 0,03% Triton X-100 buffer, pH 7,5, within 10 min after initial pre-incubation of the enzyme with inhibitor tested at 37°C for 10 min. The enzyme concentration is 0,0025U/ml. Substrate used Me-Suc-Ala-Ala-Pro-Val-AFC at 25µM. Measurement is taken at an excitation wavelength of 400nm and 505nm emission.
# (§3) The IC50 value is the concentration of inhibitor required to inhibit half of the enzyme activity after 10 minutes incubation.
# [2] = target: porcine pancreatic elastase (PPE) (Sus scrofa, UniProt P00772); assay: Inhibitory activity toward porcine pancreatic elastase, fluorogenic substrate, microplate reader
# Chain of porcine pancreatic elastase (PPE) (P00772 27-266): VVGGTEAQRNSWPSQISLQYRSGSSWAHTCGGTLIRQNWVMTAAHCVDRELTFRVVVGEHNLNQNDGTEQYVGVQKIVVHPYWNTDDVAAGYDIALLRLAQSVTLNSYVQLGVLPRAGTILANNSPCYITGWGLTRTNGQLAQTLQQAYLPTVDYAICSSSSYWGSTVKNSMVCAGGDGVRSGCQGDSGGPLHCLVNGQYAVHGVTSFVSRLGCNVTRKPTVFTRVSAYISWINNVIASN
# Procedure: as §1
# Measurement of inhibitory activity of compounds toward porcine pancreatic elastase (PPE).
# (§4) The inhibitory activity assay is performed at 37°C in 0,01M Tris-HCl, 0,05% Triton X-100 buffer, pH 8,5, within 10 min after initial pre-incubation of the enzyme with inhibitor tested at 37°C for 10 min. The enzyme concentration is 60nM. Substrate used Me-Suc-Ala-Ala-Pro-Val-AMC at 100µM. Measurement is taken at an excitation wavelength of 350nm and 460nm emission.
# as §3
# subtilisin (Sub) [3] = target: T2, subtilisin (Sub) (Bacillus licheniformis, UniProt P00780); assay: Inhibitory activity toward subtilisin, fluorogenic substrate, microplate reader; conditions: 10 min, pH 7.5, read-out: Sub Kobs/[I]
# T2 sequence (P00780 106-379): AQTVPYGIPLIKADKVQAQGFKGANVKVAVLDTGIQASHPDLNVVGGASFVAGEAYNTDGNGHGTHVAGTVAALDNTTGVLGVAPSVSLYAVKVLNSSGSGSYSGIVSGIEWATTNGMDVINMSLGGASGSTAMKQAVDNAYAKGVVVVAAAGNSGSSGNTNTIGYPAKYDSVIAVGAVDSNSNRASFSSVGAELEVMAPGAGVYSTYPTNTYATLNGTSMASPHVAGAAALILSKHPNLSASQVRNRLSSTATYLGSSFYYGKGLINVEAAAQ
# proteinase 3 (PR3) = target: T3, proteinase 3 (PR3) (Homo sapiens, UniProt P24158); assay: Inhibitory activity toward proteinase 3, fluorogenic substrate, microplate reader
# T3 sequence (P24158 28-248): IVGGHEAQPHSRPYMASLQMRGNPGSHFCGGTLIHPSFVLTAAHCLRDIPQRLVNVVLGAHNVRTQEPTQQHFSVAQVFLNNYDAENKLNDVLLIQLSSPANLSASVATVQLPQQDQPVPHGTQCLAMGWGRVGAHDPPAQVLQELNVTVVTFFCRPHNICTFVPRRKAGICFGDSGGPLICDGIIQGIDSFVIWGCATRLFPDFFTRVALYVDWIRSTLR
# Procedure: as §1
# Measurement of inhibitory activity of compounds toward proteinase 3(PR3).
# (§5) The inhibitory activity assay is performed at 37°C in 0,1M Tric-HCl, 0,5M NaCl buffer, pH 7,5, within 10 min after initial pre-incubation of the enzyme with inhibitor tested at 37°C for 10 min. The enzyme concentration is 17nM. Substrate used Abz-Tyr-Tyr-Abu-Anb-NH2 at 30µM. Measurement is taken at an excitation wavelength of 325nm and 400nm emission.
# as §3
# cathepsin G (CatG) = target: T4, cathepsin G (CatG) (Homo sapiens, UniProt P08311); assay: Inhibitory activity toward cathepsin G, fluorogenic substrate, microplate reader; conditions: read-out: Cat G IC50; 10 min pre-incubation at 37°C, pH 7,5, MCA-Phe-Val-Thr-Gnf-Ser-Trp-Anb-NH2 2.5µM; NI = brak inhibicji (no inhibition)
# T4 sequence (P08311 21-244): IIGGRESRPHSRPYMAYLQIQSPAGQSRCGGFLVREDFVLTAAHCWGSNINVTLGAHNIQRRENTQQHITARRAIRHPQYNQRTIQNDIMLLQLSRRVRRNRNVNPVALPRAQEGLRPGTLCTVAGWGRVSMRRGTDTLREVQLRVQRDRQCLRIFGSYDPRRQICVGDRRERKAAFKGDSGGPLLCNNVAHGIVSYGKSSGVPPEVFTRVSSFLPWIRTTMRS
# Procedure: as §1
# Measurement of inhibitory activity of compounds toward cathepsin G (CatG).
# as §5, with “100nM.” for “17nM.”, “MCA-Phe-Val-Thr-Gnf-Ser-Trp-Anb-NH2” for “Abz-Tyr-Tyr-Abu-Anb-NH2”, “2.5µM.” for “30µM.”
# as §3
# subtilisin (Sub) [4] = target: T2, subtilisin (Sub); assay: Inhibitory activity toward subtilisin, fluorogenic substrate, microplate reader
# Procedure: as §1
# Measurement of inhibitory activity of compounds toward subtilisin (Sub).
# as §4, with “0,05M” for “0,01M”, “1M NaCl, 0,01%” for “0,05%”, “7,5,” for “8,5,”, “5nM.” for “60nM.”, “Me-Suc-Ala-Ala-Pro-Phe-AMC” for “Me-Suc-Ala-Ala-Pro-Val-AMC”, “5µM.” for “100µM.”
# as §3
# trypsin (Try) = target: T5, trypsin (Try) (Bos taurus, UniProt P00760); assay: Inhibitory activity toward trypsin, fluorogenic substrate, microplate reader; conditions: 10 min pre-incubation at 37°C, pH 7,5, Cbz-Arg-AFC 100µM; NI = brak inhibicji (no inhibition)
# T5 sequence (P00760 24-246): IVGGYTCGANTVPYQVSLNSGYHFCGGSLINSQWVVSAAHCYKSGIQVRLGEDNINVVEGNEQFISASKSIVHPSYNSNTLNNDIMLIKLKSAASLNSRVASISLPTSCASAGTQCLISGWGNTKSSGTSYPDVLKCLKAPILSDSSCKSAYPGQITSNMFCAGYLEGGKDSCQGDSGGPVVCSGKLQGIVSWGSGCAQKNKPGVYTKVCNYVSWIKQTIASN
# Procedure: as §1
# Measurement of inhibitory activity of compounds toward trypsin (Try).
# as §2, with “0,1M” for “0,01M”, “25nM.” for “0,0025U/ml.”, “Cbz-Arg-AFC” for “Me-Suc-Ala-Ala-Pro-Val-AFC”, “100µM.” for “25µM.”
# as §3
# chymotrypsin (ChTry) = chymotrypsin (ChTry) (Bos taurus, UniProt P00766); assay: Inhibitory activity toward chymotrypsin, fluorogenic substrate, microplate reader; conditions: 10 min pre-incubation at 37°C, pH 7,5, Suc-Ala-Ala-Pro-Phe-AMC 5µM; NI = brak inhibicji (no inhibition)
# Procedure: as §1
# Measurement of inhibitory activity of compounds toward […] (ChyTry).
# as §5, with “HEPES,” for “Tric-HCl,”, “3nM.” for “17nM.”, “Suc-Ala-Ala-Pro-Phe-AMC” for “Abz-Tyr-Tyr-Abu-Anb-NH2”, “5µM.” for “30µM.”, “350nm” for “325nm”, “460nm” for “400nm”
# as §3
Structure (SMILES),"IC50 ([1]; read-out: HNE IC50, 10 min pre-incubation at 37°C, pH 7,5, Me-Suc-Ala-Ala-Pro-Val-AFC 25µM, NI = brak inhibicji (no inhibition)) [nM]","IC50 ([2]; read-out: PPE IC50, 10 min pre-incubation at 37°C, pH 8,5, Me-Suc-Ala-Ala-Pro-Val-AMC 100µM, NI = brak inhibicji (no inhibition)) [nM]",kinact/KI (subtilisin (Sub) [3]) [M⁻¹ s⁻¹],"IC50 (proteinase 3 (PR3); read-out: PR3 IC50, 10 min pre-incubation at 37°C, pH 7,5, Abz-Tyr-Tyr-Abu-Anb-NH2 30µM, NI = brak inhibicji (no inhibition)) [nM]",IC50 (cathepsin G (CatG)) [nM],IC50 (subtilisin (Sub) [4]) [nM],IC50 [1] [nM],"HNE Kobs/[I] ([1]; 10 min pre-incubation at 37°C, pH 7,5, Me-Suc-Ala-Ala-Pro-Val-AFC 25µM, NI = brak inhibicji (no inhibition))",IC50 [2] [nM],Try Kobs/[I] (trypsin (Try)),ChyTr Kobs/[I] (chymotrypsin (ChTry)),IC50 (proteinase 3 (PR3)) [nM],"PR3 Kobs/[I] (proteinase 3 (PR3); 10 min pre-incubation at 37°C, pH 7,5, Abz-Tyr-Tyr-Abu-Anb-NH2 30µM, NI = brak inhibicji (no inhibition))","Sub Kobs/[I] (subtilisin (Sub) [4]; 10 min pre-incubation at 37°C, pH 7,5, Me-Suc-Ala-Ala-Pro-Phe-AMC 5µM, NI = brak inhibicji (no inhibition))"
"CC(C)CC(NC(=O)C1CCCN1C(=O)C(NC(=O)CCCCC1SCC2NC(=O)NC21)C(C)C)P(=O)(Oc1ccccc1)Oc1ccccc1 (stereo not shown) [Compound 7, diphenyl (3-methyl-1-(1-(3-methyl-2-(5-(2-oxohexahydro-1H-thieno[3,4-d]imidazol-4-yl)pentanamido)butanoyl)pyrrolidine-2-carboxamido)butyl)phosphonate]",> 5000,> 5000,15000,> 5000,> 5000,76.5 ± 1.65,–,–,–,–,–,–,–,–
"CCC(NC(=O)C1CCCN1C(=O)C(NC(=O)CCCCC1SCC2NC(=O)NC21)C(C)C)P(=O)(Oc1ccc(SC)cc1)Oc1ccc(SC)cc1 (stereo not shown) [Compound 13, bis(4-(methylthio)phenyl) (1-(1-(3-methyl-2-(5-(2-oxohexahydro-1H-thieno[3,4-d]imidazol-4-yl)pentanamido)butanoyl)pyrrolidine-2-carboxamido)propyl)phosphonate]",–,–,–,–,> 5000,147 ± 4,2.75 ± 0.05,4.2*10^5 M^-1S^-1,23.5 ± 1.95,3*10^2 M^-1S^-1,1.2*10^3 M^-1S^-1,227 ± 17,1.0*10^4 M^-1S^-1,7.8*10^3 M^-1S^-1
